Values after ≈ are worked out from the molar mass of the structure shown.
Tests used:
Assay type in all cases: functional
HT-29 = experiment: Cytotoxicity against human HT-29 cells after 6 days by MTT assay; details: HT-29, 144 h, read-out: ED50 (the source's name)
KB = experiment: Cytotoxicity against human KB cells after 3 days by MTT assay; details: 72 h, read-out: ED50 (the source's name)
A549 = experiment: Cytotoxicity against human A549 cells after 6 days by MTT assay; details: A549, 144 h, read-out: ED50 (the source's name)
P388 = experiment: Cytotoxicity against mouse P388 cells after 3 days by MTT assay; details: P388, 72 h, read-out: ED50 (the source's name)

Structure (SMILES) | EC50 (HT-29) [µg/mL] | EC50 (KB) [µg/mL] | EC50 (A549) [µg/mL] | EC50 (P388) [µg/mL]
COc1cc(C2C(C(=O)N3CCC=CC3=O)[C@H](c3cc(OC)c(OC)c(OC)c3)[C@@H]2C(=O)N2CCC=CC2=O)cc(OC)c1OC (stereo partly specified) [PIPLARTINE DIMER A] | 2.49 (≈ 3.92 µM) | 3.9 (≈ 6.14 µM) | 2.21 (≈ 3.48 µM) | 3.06 (≈ 4.82 µM)
COc1cc(CCC(=O)N2CCC=CC2=O)cc2c1OCO2 | 3.8 (≈ 12.5 µM) | 4.99 (≈ 16.5 µM) | 5.76 (≈ 19 µM) | 2.21 (≈ 7.29 µM)
COc1cc(/C=C/C(=O)N2CCC=CC2=O)cc2c1OCO2 | 2.15 (≈ 7.14 µM) | 2.62 (≈ 8.7 µM) | 2.57 (≈ 8.53 µM) | 0.43 (≈ 1.43 µM)
COc1cc(/C=C/C(=O)N2CCC=CC2=O)cc(OC)c1OC [PIPLARTINE] | 0.45 (≈ 1.42 µM) | 1.8 (≈ 5.67 µM) | 0.6 (≈ 1.89 µM) | 0.9 (≈ 2.84 µM)
